Assay results published in paper PMC8594108, “In vitro growth inhibitory activity of Medicines for Malaria Venture pathogen box compounds against Leishmania aethiopica” (BMC Pharmacology & Toxicology, 2021).
Several values for one entry are separate records, joined by “and”; a condition that tells them apart may be missing. Equal values may be shown once. Read-outs that look alike come from different tables or passages of the source.

Legend:
[1] = ref NCBI PubChem [29]-[39]; cited from earlier work
[2] = tested on: L. aethiopica promastigotes; test: Primary antipromastigote assay (resazurin based); type: cell-based; conditions: Leishmania aethiopica, 72 h; for IC50: dose titration 0.03 to 1 μM, average of two independent experiments in triplicate, read-out: IC50 (95% CI) against Leishmania aethiopica promastigotes
Experimental: Test compounds were diluted in 96-well microculture plate containing 100 μL complete M199 medium. […] The Parasite density was kept constant at 1 × 10^5 per well. After 68 h of incubation, 10 μL of fluorochrome resazurin solution (Sigma-Aldrich, Co., St. […] The percentage of inhibition (%) was calculated for each concentration using the following formula: Inhibition%=100−Fluorescence in duplicate drug wells-Fluorescence in blank wells/Fluorescence control wells−Fluorescence in blank wells∗100

[3] = tested on: intracellular L. aethiopica amastigotes; test: Intracellular amastigote assay in mouse peritoneal macrophages; type: cell-based, Leishmania aethiopica; conditions: for IC50 / inhibition at 1 µM: Leishmania aethiopica, Peritoneal macrophage, 72 h; for IC50: mouse peritoneal macrophages, read-out: IC50 against intracellular L. aethiopica amastigotes; for inhibition at 1 µM: read-out: percentage of inhibition of intracellular amastigotes
Experimental: Intracellular amastigote assay was conducted according to the method described elsewhere with modifications. Approximately 3 × 10^5 peritoneal macrophages were seeded in 24-well plates and allowed to adhere for 12 h at 33 °C in 5% CO2. Adherent cells were infected with late-stage L. aethiopica promastigotes (1:10 ratio) after washing out non-adherent cells twice. Only when > 70% of the macrophages present in the wells were infected was the infection deemed sufficient. The medium was then replaced with a fresh complete medium with or without test compounds and incubated for 72 h at 33 °C and 5% CO2. After 72 h of incubation, slides were washed with prewarmed PBS, fixed with methanol, and stained with Giemsa (10%) for 15 min and observed under 100x oil immersion objective microscope [Olympus]. Amphotericin B and pentamidine were used as reference drugs against test samples.
The IC50 was determined by counting amastigotes in (50) macrophages in duplicate cultures. In all assays except for haemolytic and THP- 1, test compounds were diluted in a two-fold dose-titration range (0.03 to 1 μM) in triplicate. Parasite burden was calculated using the infection index as shown below. Infection index=Number of infected macrophages/Total macrophage countedxTotal number of amastigotes in infected macrophages/Total infected macrophages counted

Haemolysis test = type: cell-based, sheep; conditions: sheep
Experimental: (§1) The mixture was then centrifuged at 1000 g for 10 min. 75 μL of the resulting supernatant were transferred to 96-well plates and the absorbance readings obtained at 540 nm using Victor3 Multilabel Counter (PerkinElmer, Waltham, USA).

[4] = THP-1 cell cytotoxicity assay (resazurin); type: cell-based; conditions: human
Experimental: (§2) Approximately 2 × 10^5 THP-1 cell suspension were added to 96-well microplate containing serially diluted 50 μL test compounds. Microplates were then incubated for 68 h at 37 °C in a 5% CO2 air mixture. Cell viability was determined with the resazurin- based fluorescence assay measured after a total incubation time of 72 h. The estimated median cell cytotoxicity (CC50) was calculated for each concentration using the formula: Cell viability%=Fluorescence in duplicate drug wells-Fluorescence blank wells/Fluorescence in control wells−Fluorescence blank wells∗100 The selectivity index of compounds was calculated from the ratio of the CC50 value determined in THP1 cells to the IC50 value determined from the dose-response curves in promastigote and amastigote assay using the following formula. Selectivity indexSI=CC50THP1cells/IC50promastigotes or amstigotes

[5] = tested on: sheep red blood cells (RBCs); test: Haemolysis test; type: cell-based; conditions: at 25 μM
Experimental: as §1

THP-1 cells = test: THP-1 cell cytotoxicity assay (resazurin); type: cell-based
Experimental: as §2

L. infantum = tested on: L. infantum; parameters: method as in MMV biological data; conditions: ref MMV biological data; cited from earlier work
MRC-5 cells = tested on: MRC-5 cells; parameters: method as in MMV (MMV PB website); conditions: ref MMV (MMV PB website); read-out: IC50 against MRC-5 cells; cited from earlier work
PMM cells = tested on: PMM cells; parameters: method as in MMV (MMV PB website); conditions: ref MMV (MMV PB website); read-out: IC50 against PMM cells; cited from earlier work
[6] = hit map sheet with colour categories, negative values shown as 0.00, read-out: Percentage of inhibition against Leishmania aethiopica promastigotes
[7] = hit map sheet without colour categories, negative values kept, read-out: Percentage of inhibition against Leishmania aethiopica promastigotes
[8] = sheep red blood cells (2% blood suspension), 1.56–25 μM, 2 h, 37 °C, read-out: Cytotoxicity, CC50, Sheep RBC
[9] = THP-1 cells, 72 h, read-out: Cytotoxicity, CC50, THP-1

Row | IC50 [2] [nM] | IC50 [3] [nM] | SMILES | R3 H+ bond receiver [1] | R6 Polar surface area [1] [A^2] | inhibition at 1 µM [2, 6] [%] | inhibition at 1 µM [2, 7] [%] | activities against the intracellular amastigotes (in words) [3] | CC50 at 2 h (Haemolysis test; [8]) [nM] | CC50 at 72 h [4, 9] [nM] | inhibition at 1 µM [3] [%] | hemolytic activity on sheep RBC [5] [%] | CC20 on THP-1 cell line (THP-1 cells; 72 h) [nM] | CC50 at 2 h (Haemolysis test) [nM] | CC50 at 72 h [4] [nM] | IC50 (L. infantum) [nM] | Cytotoxicity, CC50 (extrapolated IC50), THP-1 (THP-1 cells; 72 h, extrapolated result) | Selectivity index (SI) (THP-1 cells; CC50 THP-1 cells / IC50 promastigotes or amastigotes) | IC50 (MRC-5 cells) [nM] | IC50 (PMM cells) [nM]
1 | 390 | – | CN1CCN(CCCOc2ncc(Nc3ncc(-c4ccc(C(F)(F)F)c(F)c4)nc3C(N)=O)cn2)CC1 [MMV687812] | 13 | 122 | 72.9 | 72.9 | – | > 25000 | > 25000 | – | – | – | – | – | – | – | – | – | –
2 | 283 | 277 ± 37.2 | COc1cncc(-c2cncc(N3CCN(c4ccncc4)CC3)n2)c1 [MMV085071] | 7 | 67.3 | 76.1 | 76.1 | – | > 25000 | > 25000 | 80.5 ± 4.2 | – | – | – | – | – | – | – | – | –
3 | – | – | CCCCCCCCCCCCCCCCOP(=O)([O-])OCC[N+](C)(C)C [Miltefosine, reference compound] | – | – | 35.3 | 35.3 | – | – | – | – | – | – | – | – | – | – | – | – | –
4 | – | – | CN1CCCC1CCO[C@](C)(c1ccccc1)c1ccc(Cl)cc1 (stereo partly drawn) [MMV637229] | 2 | – | – | – | – | – | – | – | – | – | – | – | – | – | – | – | –
5 | 158 | 76 ± 18.1 | COc1ccc(Oc2ccc([C@@H](C)N(C)c3ncc4c(N)nc(N)nc4n3)cc2)cc1 [MMV690102] | 9 | 125 | 95 | – | – | > 25000 | – | 90.7 ± 5.3 | – | – | – | – | 3 | 36500 nM and 36550 nM and 36000 nM | 478.4 | 5400 | 4000
6 | 448 | 435 ± 49.2 | O=C(Nc1ccc(N2CCNCC2)cc1)c1ccn2ncc(-c3cccc(Cl)c3)c2n1 [MMV022478] | 5 | 74.6 | 98.9 | 98.9 | – | > 25000 | > 25000 | 72.4 ± 5.6 | – | – | – | – | – | – | – | – | –
7 | – | 277 ± 7.9 | C[C@@H]1[C@H](O)[C@@H](C)/C=C/C=C/C=C/C=C/C=C/C=C/C=C/[C@H](O[C@@H]2O[C@H](C)[C@@H](O)[C@H](N)[C@@H]2O)C[C@@H]2O[C@](O)(C[C@@H](O)C[C@@H](O)[C@H](O)CC[C@@H](O)C[C@@H](O)CC(=O)O[C@H]1C)C[C@H](O)[C@H]2C(=O)O [Amphotericin B, reference compound] | – | – | 63 | 63 | – | – | – | – | – | – | – | – | – | – | – | – | –
8 | 356 | – | N=C(N)Nc1ccc(-c2ccc(-c3ccc(NC(=N)N)cc3Cl)o2)c(Cl)c1 [MMV688179, 2,5-Bis (2-chloro-4-guanidinophenyl) furan] | 3 | 142 | 80.6 | 80.6 | – | > 25000 | > 25000 | – | – | – | – | – | – | – | – | – | –
9 | 1310 | 1600 ± 90 | N=C(N)c1ccc(OCCCCCOc2ccc(C(=N)N)cc2)cc1 [Pentamidine, reference compound] | – | – | 64.7 | 64.7 | – | – | – | – | – | – | – | – | – | – | – | – | –

Row | SMILES | IC50 [2] [nM] | IC50 [3] [nM] | R3 H+ bond receiver [1] | R6 Polar surface area [1] [A^2] | inhibition at 1 µM [2, 6] [%] | inhibition at 1 µM [2, 7] [%] | activities against the intracellular amastigotes (in words) [3] | CC50 at 2 h (Haemolysis test; [8]) [nM] | CC50 at 72 h [4, 9] [nM] | inhibition at 1 µM [3] [%] | hemolytic activity on sheep RBC [5] [%] | CC20 on THP-1 cell line (THP-1 cells; 72 h) [nM] | CC50 at 2 h (Haemolysis test) [nM] | CC50 at 72 h [4] [nM] | IC50 (L. infantum) [nM] | Cytotoxicity, CC50 (extrapolated IC50), THP-1 (THP-1 cells; 72 h, extrapolated result) | Selectivity index (SI) (THP-1 cells; CC50 THP-1 cells / IC50 promastigotes or amastigotes) | IC50 (MRC-5 cells) [nM] | IC50 (PMM cells) [nM]
10 | CN1CCC(NCc2cccc(-c3ccc(S(=O)(=O)NCc4ccccc4)cc3)c2)CC1 [MMV022029] | 305 | – | 5 | 69.8 | 88 | 88 | low | > 25000 | > 25000 | – | – | – | – | – | – | – | – | – | –
11 | CO[C@@H]1CN(c2ccc(C#CC3(O)CN4CCC3CC4)c(Cc3ccccc3)n2)C[C@H]1O (stereo partly drawn) [MMV688415] | 145 | 374 ± 45.4 | 6 | – | 98.7 | – | – | > 25000 | > 25000 | 68.6 ± 6.6 | 5.3 | 25000 | – | – | – | – | – | – | –
12 | Cc1cccc(C(=O)Nc2ccnc(N(C)C3CCN(CC(C)C)CC3)c2)c1 [MMV024829] | 356 | 411 ± 56.6 | 4 | – | 82.4 | 82.4 | – | – | – | 69.6 ± 4.1 | – | – | > 25000 | > 25000 | – | – | – | – | –
13 | Clc1cccc(C(c2ccc(CN3CCNCC3)cc2)n2ccnc2)c1 (stereo not drawn) [MMV663250] | 326 | – | 3 | 33.1 | 81 | 81 | – | > 25000 | > 25000 | – | – | – | – | – | – | – | – | – | –
14 | O=C(Nc1cccc(Cl)c1)c1cnc(N2CCN(c3ccncc3)CC2)c(Cl)c1 [MMV024406] | 24 | 900 ± 65.9 | 5 | 61.4 | 97.3 | 97.3 | low | > 25000 | > 25000 | 55.6 ± 5.5 | – | – | – | – | – | – | – | – | –
